Reference: US20070128217A1 (priority 2003, published 2007)

B1: SC03-012 (scFv)
scFv: AMAQVQLVQSGAEVKKPGASVKVSCKASGYTFTSYGISWVRQAPGQGLEWMGWISAYNGNTNYAQKLQGRVTMTTDTSTSTAYMELSSLRSDDTAVYYCARMFRKSSFDSWGQGTLVTVSRGGGGSGGGGSGGGGSSELTQDPAVSVALGQTVRITCQGDSLRSYYASWYQQKPGQAPVLVIYGKNNRPSGIPDRFSGSSSGNTASLTITGAQAEDEADYYCNSRDSSGNHVVFGGGTKLTVLGAAA

How the values were obtained:
[1] = test system: antibodies in sera from SARS patients (sera 1a, 1b, 2, 6, 37, 62, London, SARS-yellow, SARS-green); format: binding, human; parameters: Binding of serum 6 to linear peptides of protein X1 of SARS-CoV Urbani / Binding of serum 37 to linear peptides of protein X1 of SARS-CoV Urbani / Binding of serum 6 to looped/cyclic peptide (PEPSCAN-ELISA) / Binding of serum 37 to looped/cyclic peptide (PEPSCAN-ELISA) / Binding of serum 37 to looped/cyclic peptides of protein X1 of SARS-CoV Urbani / Binding of serum 6 to linear peptides of protein X2 / Binding of serum 37 to linear peptides of protein X2 / Binding of serum 37 to looped/cyclic peptides of protein X2 of SARS-CoV Urbani / Binding of serum 6 to linear peptides of protein M of SARS-CoV Urbani / Binding of serum 37 to linear peptides of protein M of SARS-CoV Urbani / Binding of serum 6 to looped/cyclic peptides of protein M of SARS-CoV Urbani / Binding of serum 37 to looped/cyclic peptides of protein M of SARS-CoV Urbani / Binding of serum 6 to linear peptides of protein X3 of SARS-CoV Urbani / Binding of serum 37 to linear peptides of protein X3 of SARS-CoV Urbani / Binding of serum 37 to looped/cyclic peptides of protein X3 of SARS-CoV Urbani / Binding of serum 6 to linear peptides of protein X4 of SARS-CoV Urbani / Binding of serum 37 to linear peptides of protein X4 of SARS-CoV Urbani / Binding of serum 37 to looped/cyclic peptides of protein X4 of SARS-CoV Urbani / Binding of serum 6 to linear peptides of protein X5 of SARS-CoV Urbani / Binding of serum 37 to linear peptides of protein X5 of SARS-CoV Urbani / Binding of serum 37 to looped/cyclic peptides of protein X5 of SARS-CoV Urbani / Binding of serum 6 to linear peptides of protein N of SARS-CoV Urbani / Binding of serum 37 to linear peptides of protein N of SARS-CoV Urbani / Binding of serum 6 to linear peptide (PEPSCAN-ELISA) / Binding of serum 1a to looped/cyclic peptides of protein N of SARS-CoV Urbani / Binding of serum 1b to looped/cyclic peptides of protein N of SARS-CoV Urbani / Binding of serum 2 to looped/cyclic peptides of protein N of SARS-CoV Urbani / Binding of serum 6 to looped/cyclic peptides of protein N of SARS-CoV Urbani / Binding of serum 37 to looped/cyclic peptides of protein N of SARS-CoV Urbani / Binding of serum 62 to looped/cyclic peptides of protein N of SARS-CoV Urbani / Binding of serum London to looped/cyclic peptides of protein N of SARS-CoV Urbani / Binding of serum SARS-green to looped/cyclic peptides of protein N of SARS-CoV Urbani: unit not given here
[2] = test system: control sera (pooled serum of ten healthy LUMC hospital workers; commercial negative donor pooled serum from the Dutch bloodbank); format: binding, human; parameters: Binding of Control serum LUMC to linear peptides / Binding of Control serum Blood-bank to linear peptides / Binding of Control serum LUMC to looped peptides / Binding of Control Serum Blood-Bank to Looped peptides / Binding of Control serum LUMC to linear peptides of the protein M of SARS-CoV Urbani / Binding of Control serum Blood-bank to linear peptides of the protein M of SARS-CoV Urbani / Binding of Control serum LUMC to looped peptides of the protein M of SARS-CoV Urbani / Binding of Control Serum Blood-Bank to Looped peptides of the protein M of SARS-CoV Urbani: unit not given here
[3] = test system: rabbit serum obtained by immunizing a rabbit with the SARS-CoV strain Frankfurt 1; format: binding; parameters: Binding of a rabbit serum to linear peptides / Binding of a rabbit serum to looped peptides / Rabbit serum linear peptides / Rabbit serum looped peptides / Binding of a rabbit serum to linear peptides of protein N of SARS-CoV Urbani (Rabbit serum linear peptides) / Binding of a rabbit serum to looped/cyclic peptides of protein N of SARS-CoV Urbani (Rabbit serum looped peptides): unit not given here
[4] = test system: recombinant human anti-SARS-CoV antibody 03-018; format: binding; parameters: Binding of antibody 03-018 to linear peptides of the N protein of SARS-CoV Urbani / Binding of antibody 03-018 to looped/cyclic peptides of the N protein of SARS-CoV Urbani: unit not given here
[5] = biological target: SARS-CoV preparation (Frankfurt 1 strain) (SARS-CoV strain Frankfurt 1)

Molecule | Binding of serum 1a to linear peptides of protein N of SARS-CoV Urbani [1] | Binding of serum 1a to looped/cyclic peptides of protein N of SARS-CoV Urbani [1] | Binding of serum 1b to linear peptides of protein N of SARS-CoV Urbani [1] | Binding of serum 1b to looped/cyclic peptides of protein N of SARS-CoV Urbani [1] | Binding of serum 2 to linear peptides of protein N of SARS-CoV Urbani [1] | Binding of serum 2 to looped/cyclic peptides of protein N of SARS-CoV Urbani [1] | Binding of serum 6 to linear peptides of protein N of SARS-CoV Urbani [1] | Binding of serum 6 to looped/cyclic peptides of protein N of SARS-CoV Urbani [1] | Binding of serum 37 to linear peptides of protein N of SARS-CoV Urbani [1] | Binding of serum 37 to looped/cyclic peptides of protein N of SARS-CoV Urbani [1] | Binding of serum 62 to linear peptides of protein N of SARS-CoV Urbani [1] | Binding of serum 62 to looped/cyclic peptides of protein N of SARS-CoV Urbani [1] | Binding of serum London to linear peptides of protein N of SARS-CoV Urbani [1] | Binding of serum London to looped/cyclic peptides of protein N of SARS-CoV Urbani [1] | Binding of serum SARS-green to linear peptides of protein N of SARS-CoV Urbani [1] | Binding of serum SARS-green to looped/cyclic peptides of protein N of SARS-CoV Urbani [1] | Binding of serum SARS-yellow to linear peptides of protein N of SARS-CoV Urbani [1] | Binding of serum SARS-yellow to looped/cyclic peptides of protein N of SARS-CoV Urbani [1] | Binding of a rabbit serum to linear peptides of protein N of SARS-CoV Urbani (Rabbit serum linear peptides) [3] | Binding of a rabbit serum to looped/cyclic peptides of protein N of SARS-CoV Urbani (Rabbit serum looped peptides) [3] | other results
YKTFPPTEPKKDKKK | 0.2 | 0.2 | 0.1 | 0.1 | 0.5 | 0.1 | 0.2 | 0.0 | 0.7 | 0.4 | 0.7 | 0.2 | 0.5 | 0.3 | 0.2 | 0.0 | 0.8 | 0.2 | 0.2 | 0.2 | Control Serum Blood-Bank Looped peptides [2]: 0.3; Control serum Blood-bank linear peptides [2]: 0.7; Control serum LUMC linear peptides [2]: 0.6; Control serum LUMC looped peptides [2]: 0.3; Binding of antibody 03-018 to linear peptides of the N protein of SARS-CoV Urbani [4]: 0.1; Binding of antibody 03-018 to looped/cyclic peptides of the N protein of SARS-CoV Urbani [4]: 0.2
YLGTGPEASLPYGAN | 0.2 | 0.4 | 0.1 | 0.3 | 0.2 | 0.4 | 0.2 | 0.2 | 0.7 | 0.8 | 0.6 | 0.7 | 0.5 | 0.5 | 0.3 | 0.6 | 0.6 | 0.6 | 0.1 | 0.6 | Binding of Control Serum Blood-Bank to Looped peptides [2]: 0.7; Binding of Control serum Blood-bank to linear peptides [2]: 0.6; Binding of Control serum LUMC to linear peptides [2]: 0.8; Binding of Control serum LUMC to looped peptides [2]: 0.7; Binding of antibody 03-018 to linear peptides of the N protein of SARS-CoV Urbani [4]: 0.1; Binding of antibody 03-018 to looped/cyclic peptides of the N protein of SARS-CoV Urbani [4]: 0.2
YYLGTGPEASLPYGA | 0.3 | 0.4 | 0.2 | 0.4 | 0.2 | 0.4 | 0.2 | 0.3 | 0.7 | 0.9 | 0.7 | 0.7 | 0.4 | 0.5 | 0.2 | 0.5 | 0.8 | 0.7 | 0.1 | 0.5 | Binding of Control Serum Blood-Bank to Looped peptides [2]: 0.8; Binding of Control serum Blood-bank to linear peptides [2]: 0.7; Binding of Control serum LUMC to linear peptides [2]: 0.7; Binding of Control serum LUMC to looped peptides [2]: 0.8; Binding of antibody 03-018 to linear peptides of the N protein of SARS-CoV Urbani [4]: 0.1; Binding of antibody 03-018 to looped/cyclic peptides of the N protein of SARS-CoV Urbani [4]: 0.2
YYRRATRRVRGGDGK | 0.3 | 0.2 | 0.1 | 0.1 | 0.3 | 0.2 | 0.3 | 0.1 | 0.7 | 0.4 | 0.6 | 0.2 | 0.5 | 0.2 | 0.3 | 0.0 | 0.5 | 0.1 | 0.2 | 0.0 | Binding of Control Serum Blood-Bank to Looped peptides [2]: 0.3; Binding of Control serum Blood-bank to linear peptides [2]: 0.6; Binding of Control serum LUMC to linear peptides [2]: 0.6; Binding of Control serum LUMC to looped peptides [2]: 0.2; Binding of antibody 03-018 to linear peptides of the N protein of SARS-CoV Urbani [4]: 0.1; Binding of antibody 03-018 to looped/cyclic peptides of the N protein of SARS-CoV Urbani [4]: 0.2
B1 |  |  |  |  |  |  |  |  |  |  |  |  |  |  |  |  |  |  |  |  | OD492nm [5]: 0.495 OD492nm
